The text below walks through data of patent US10087188B2, “Benzamide imidazopyrazine Btk inhibitors” (MERCK SHARP & DOHME CORP., priority 2014, dated 2018).

In assay [1] the target is BTK enzyme (recombinant full-length BTK, hBTK) (Homo sapiens (Human), UniProt Q06187). Kind of assay: Btk enzyme activity assay, LANCE TR-FRET. It counts as biochemical. Particulars: 50 pM hBTK, 2 μM biotin-A5-peptide, 25 μM ATP; 60 minute compound & enzyme incubation; read-out: BTK binding IC50. Here is the method: Btk Enzyme Activity Assay Methods
BTK enzymatic activity was determined with the LANCE (Lanthanide Chelate Excite) TR-FRET (Time-resolved fluorescence resonance energy transfer) assay. […] After 60 minutes incubation with detection reagents, reaction plates were read on a PerkinElmer EnVision plate reader using standard TR-FRET protocol.
On the technique in general: Time-resolved FRET reads energy transfer from a long-lived donor to a nearby acceptor.

The next assay concerns HeLa cells. Kind of assay: [3H] Adenosine uptake assay. It counts as cell-based. The conditions noted are these: accumulation of tritiated adenosine into HeLa cells, compound concentration range 10 μM to 0.032 nM, read-out: ADU inhibition IC50 (adenosine uptake inhibition potency). The gist of the method: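 HeLa cells in HBSS + 5% FBS preincubated 30 min at ambient temperature with compound (0.25% DMSO), then [3H]adenosine (500 nM stock) added for 60 min. Uptake measured by scintillation proximity counting; IC50 from 4-parameter fit of counts vs log concentration.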

Structures are written as SMILES. Where two headings read alike, the source gives them in different places.

Sequence of BTK enzyme (recombinant full-length BTK, hBTK) (Q06187 whole entry): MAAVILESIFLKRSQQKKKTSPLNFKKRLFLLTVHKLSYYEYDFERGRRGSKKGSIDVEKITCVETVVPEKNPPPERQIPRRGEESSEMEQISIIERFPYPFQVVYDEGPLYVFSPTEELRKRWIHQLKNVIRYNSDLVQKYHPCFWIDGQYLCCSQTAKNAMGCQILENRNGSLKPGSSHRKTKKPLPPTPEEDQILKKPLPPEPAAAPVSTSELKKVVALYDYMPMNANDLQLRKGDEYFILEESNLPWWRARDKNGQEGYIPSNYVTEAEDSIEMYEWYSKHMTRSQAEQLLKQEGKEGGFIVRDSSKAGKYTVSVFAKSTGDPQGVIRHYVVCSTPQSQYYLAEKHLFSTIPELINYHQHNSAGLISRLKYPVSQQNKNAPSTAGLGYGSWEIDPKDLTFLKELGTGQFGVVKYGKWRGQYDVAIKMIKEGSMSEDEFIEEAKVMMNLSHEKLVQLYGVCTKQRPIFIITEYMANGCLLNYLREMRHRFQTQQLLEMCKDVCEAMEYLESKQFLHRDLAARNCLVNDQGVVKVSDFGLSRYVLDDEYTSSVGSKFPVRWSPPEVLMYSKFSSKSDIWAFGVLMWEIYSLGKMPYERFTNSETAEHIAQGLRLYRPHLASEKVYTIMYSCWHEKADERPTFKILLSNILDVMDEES

With `CC(C)[C@@]1(C(=O)O)CC[C@H](N2C[C@H](c3nc(-c4ccc(C(=O)Nc5cc(C(F)(F)F)ccn5)cc4F)c4c(N)ncc(Cl)n34)OC[C@@H]2C)C1` [Example 203, (1R,3S)-3-{(2R,5S)-2-[8-amino-5-chloro-1-(2-fluoro-4-{[4-(trifluoromethyl)pyridin-2-yl]carbamoyl}phenyl)imidazo [1,5-a]pyrazin-3-yl]-5-methylmorpholin-4-yl}-1-(1-methylethyl) cyclopentanecarboxylic acid], the IC50 in assay [1] stood at 0.0019 µM; in the assay with HeLa cells (Homo sapiens, HeLa), 0.891 µM.

As to `C[C@@]1(C(=O)O)CCC[C@@](C)(c2nc(-c3ccc(C(=O)Nc4cc(C(F)(F)F)ccn4)cc3)c3c(N)nccn23)C1` [Example 137, (1R,3R)-3-[8-amino-1-(4-{[4-(trifluoromethyl)pyridin-2-yl]carbamoyl}phenyl)imidazo[1,5-a]pyrazin-3-yl]-1,3-dimethylcyclohexane-carboxylic acid], the IC50 in assay [1] is 0.0009 µM; in the assay on HeLa cells (Homo sapiens, HeLa), 3.66 µM.

For `COc1cc(C(=O)Nc2cc(C(F)(F)F)ccn2)ccc1-c1nc([C@H]2CN(C3CC(C(=O)O)C3)[C@@H](C)CO2)n2ccnc(N)c12` (stereo partly drawn) [Example 185, 3-{(2R,5S)-2-[8-amino-1-(2-methoxy-4-{[4-(trifluoromethyl)pyridin-2-yl]carbamoyl}phenyl)imidazo [1,5-a]pyrazin-3-yl]-5-methylmorpholin-4-yl}cyclobutanecarboxylic acid], the IC50 in assay [1] was 0.0032 µM; in the assay on HeLa cells (Homo sapiens, HeLa) it was 5.86 µM.

Turning to `CCOc1cc(C(=O)Nc2cc(C(F)(F)F)ccn2)ccc1-c1nc([C@H]2CC[C@@](C)(C(=O)O)C2(C)C)n2ccnc(N)c12` [Example 72, (1R,3S)-3-[8-amino-1-(2-ethoxy-4-{[4-(trifluoromethyl)pyridin-2-yl]carbamoyl}phenyl)imidazo[1,5-a]pyrazin-3-yl]-1,2,2-trimethylcyclopentane carboxylic acid], the IC50 in assay [1] stood at 0.00061 µM; in the assay on HeLa cells (Homo sapiens, HeLa), 3.2 µM.

In the case of `CCOc1cc(C(=O)Nc2cc(C(F)(F)F)ccn2)ccc1-c1nc([C@@H]2CC[C@@H](C(=O)O)O2)n2ccnc(N)c12` [Example 116, (2S,5S)-5-[8-amino-1-(2-ethoxy-4-{[4-(trifluoromethyl)pyridin-2-yl]carbamoyl}phenyl)imidazo[1,5-a]pyrazin-3-yl]tetrahydrofuran-2-carboxylic acid], the IC50 was 0.022 µM in assay [1] and 1.14 µM in the assay on HeLa cells.

With `CCOc1cc(C(=O)Nc2cc(C(F)(F)F)ccn2)ccc1-c1nc([C@H]2CC[C@@](C(=O)O)(C(C)C)C2)n2ccnc(N)c12` [Example 63, (1S,3S)-3-[8-amino-1-(2-ethoxy-4-{[4-(trifluoromethyl)pyridin-2-yl]carbamoyl}phenyl)imidazo[1,5-a]pyrazin-3-yl]-1-(1-methylethyl) cyclopentane-carboxylic acid], the IC50 in assay [1] was found to be 0.00058 µM; with HeLa cells (Homo sapiens, HeLa) it was 8.55 µM.

With `Nc1nccn2c([C@@H]3C[C@@H]3C(=O)O)nc(-c3ccc(C(=O)Nc4cc(C(F)(F)F)ccn4)cc3)c12` [Example 167, (1S,2R)-2-[8-amino-1-(4-{[4-(trifluoromethyl)pyridin-2-yl]carbamoyl}phenyl)imidazo[1,5-a]pyrazin-3-yl]cyclopropane-carboxylic acid], the IC50 in assay [1] was 0.76 µM; with HeLa cells (Homo sapiens, HeLa), 10 µM.

`CCOc1cc(C(=O)Nc2cc(C(F)(F)F)ccn2)ccc1-c1nc([C@@H]2CC[C@@](C(=O)O)(C(C)C)C2)n2c(Cl)cnc(N)c12` [Example 109, (1S,3R)-3-[8-amino-5-chloro-1-(2-ethoxy-4-{[4-(trifluoromethyl)pyridin-2-yl]carbamoyl}phenyl)imidazo[1,5-a]pyrazin-3-yl]-1-(1-methylethyl)cyclo-pentanecarboxylic acid]: the half-inhibitory concentration (IC50) in assay [1] turned out to be 0.00064 µM; with HeLa cells (Homo sapiens, HeLa), 6.83 µM.

Consider `Nc1nccn2c([C@@H]3CC[C@H](CC(=O)O)C3)nc(-c3ccc(C(=O)Nc4cc(C(F)(F)F)ccn4)cc3)c12` [Example 54, {(1S,3R)-3-[8-amino-1-(4-{[4-(trifluoromethyl)pyridin-2-yl]carbamoyl}phenyl)imidazo[1,5-a]pyrazin-3-yl]cyclopentyl}acetic acid], for which the IC50 in assay [1] turned out to be 0.00018 µM; in the assay on HeLa cells (Homo sapiens, HeLa), 10 µM.

Consider `Nc1nccn2c(C34CCC(C(=O)O)(CC3)CC4)nc(-c3ccc(C(=O)Nc4cc(C(F)(F)F)ccn4)cc3O)c12` [Example 161, 4-[8-amino-1-(2-hydroxy-4-{[4-(trifluoromethyl)pyridin-2-yl]carbamoyl}phenyl)imidazo[1,5-a]pyrazin-3-yl]bicyclo[2.2.2] octane-1-carboxylic acid], for which the IC50 in assay [1] is 0.00041 µM; in the assay on HeLa cells (Homo sapiens, HeLa) it was 0.531 µM.

In the case of `C[C@@]1(C(=O)O)CC[C@](C)(c2nc(-c3ccc(C(=O)Nc4cc(C(F)(F)F)ccn4)cc3)c3c(N)nccn23)C1` [Example 81, (1R.3S)-3-[8-amino-1-(4-{[4-(trifluoromethyl)pyridin-2-yl]carbamoyl}phenyl)imidazo[1,5-a]pyrazin-3-yl]-1,3-dimethylcyclopentane carboxylic acid], the 50% inhibitory concentration (IC50) is 0.0082 µM in assay [1] and 10 µM in the assay on HeLa cells (Homo sapiens, HeLa).

With `COc1cc(C(=O)Nc2cc(C(F)(F)F)ccn2)ccc1-c1nc(C23C4C5C2C2C3C4C52C(=O)O)n2ccnc(N)c12` (centres unmarked) [Example 75, 4-(8-amino-1-(2-methoxy-4-((4-(trifluoromethyl)pyridin-2-yl)carbamoyl)phenyl)imidazo[1,5-a]pyrazin-3-yl)cubane-1-carboxylic acid], the IC50 stood at 0.00056 µM in assay [1] and 0.743 µM with HeLa cells (Homo sapiens, HeLa).

Turning to `CC(C)[C@@]1(C(=O)O)CC[C@@H](N2C[C@H](c3nc(-c4ccc(C(=O)Nc5cc(C(F)(F)F)ccn5)cc4F)c4c(N)ncc(Cl)n34)OC[C@@H]2C)C1` [Example 202, (1R,3R)-3-{(2R,5S)-2-[8-amino-5-chloro-1-(2-fluoro-4-{[4-(trifluoromethyl)pyridin-2-yl]carbamoyl}phenyl)imidazo [1,5-a]pyrazin-3-yl]-5-methylmorpholin-4-yl}-1-(1-methylethyl) cyclopentanecarboxylic acid], the 50% inhibitory concentration (IC50) in assay [1] stood at 0.00076 µM; in the assay on HeLa cells (Homo sapiens, HeLa), 4.58 µM.

For orientation: IC50 means the concentration needed to halve the response being measured.
